Measurements taken from paper PMC8583417, “Evaluation of the Antimicrobial Efficacy of N-Acetyl-L-Cysteine, Rhamnolipids, and Usnic Acid—Novel Approaches to Fight Food-Borne Pathogens” (International Journal of Molecular Sciences, 2021).
≈ marks a conversion by molar mass, not a printed value. Marks after values point to notes of the source that are not given here.

Key:
[1] = test system: S. Enteritidis ATCC 13076; experiment: MIC for reduction of preformed biofilm (crystal violet staining); type: cell-based, Salmonella enterica Enteritidis; details: for MICBR80: ≥80% reduction of preformed biofilm (18 h), 20 h with substance
Protocol: Ten concentrations of NAC, RLs, and UA were tested to determine the minimum inhibitory concentration for planktonic growth, and subsequently, the six highest concentrations were applied on preformed biofilms to evaluate the biofilm eradication ability of the compounds. MIC was defined as the lowest substance concentration able to inhibit at least 80% of microbial growth (MICPC80 for planktonic cells, MICBC80 for further growth of biofilm cells), inhibit 80% of metabolic activity (MICBM80 for biofilm metabolic activity, MICMPB80 for metabolic activity of preformed biofilm), prevent biofilm formation by at least 80% (MICBF80 for biofilm formation), or reduce a preformed biofilm by at least 80% (MICBR80 for biofilm reduction). The results of MICs are summarized in Table 1 (planktonic cells) and Table 2 (biofilm-associated cells).
The determination of MICs was performed according to Chlumsky et al.. […] To evaluate planktonic cells growth (MICPC80) and further growth of biofilm cells (MICBC80), the optical density of the content of the microtiter plates was measured spectrophotometrically at 625 nm before and after 24 h (for biofilm formation) of cultivation or before and after additional 20 h incubation with the tested compound (for preformed biofilm). […] To evaluate the inhibition of biofilm formation (MICBF80) and reduction in preformed biofilms (MICBR80), biomass was quantified using crystal violet staining, and its metabolic activity (MICBM80 and MICMPB80) was estimated by using the MTT (thiazyl tetrazolium bromide, Sigma-Aldrich, USA) reduction assay, both measured spectrophotometrically at 595 nm.
All inhibitions were calculated using the formula of Chlumsky et al. below (Equation (1)):(1) A625(595)nm inhibition (%)=A625(595)nm (control) – A625(595)nm(natural substance)/A625(595)nm (control)× 100 where A625(595)nm (control) is the absorbance of bacterial suspension/biofilm itself, and A625(595)nm(natural substance) is the absorbance of the bacterial suspension/biofilm with the added natural substance (NAC, RLs, and UA). […]

[2] = test system: HCAEC (primary human coronary artery endothelial cells); experiment: Acute cytotoxicity, resazurin assay; type: cell-based; details: 72 h
Source text: (§1) To test the acute cytotoxicity of the compounds, the following cell lines were used: primary human renal tubular epithelial cells (HRTEC; Evercyte, Vienna, Austria); human keratinocytes (HaCat; Thermo Fisher Scientific, Waltham, MA, USA); human dermal fibroblasts (HDF; Merck, Kenilworth, NJ, USA); human epithelial kidney cells (HEK 293; ATCC, Manassas, VI, USA); primary human coronary artery endothelial cells (HCAEC; ATCC, Manassas, VI, USA). The cell lines were maintained in a proper cultivation medium—HaCat, HDF, and Hek 293 in DMEM; HRTEC in VCB; HCAEC in ProxUp. The cytotoxicity experiment was realized according to Tran et al.. Briefly, the cells were counted by the Cellometer Auto T4 (Nexcelom Bioscience, Lawrence, MA, USA), and the cell suspension containing a cell density of 10^5 cells/mL was split into the 96-well plate, with 100 µL per well. The plates were then incubated for 24 h at 37 °C in a humidified atmosphere of 5% CO2. Then, the plates were washed three times with PBS, and the tested natural compounds were added using binary dilution in a proper medium. After 72 h of incubation, the cell viability was tested by resazurin assay. The fluorescence was measured by a SpectraMax i3× microplate reader (San Jose, CA, USA) at a wavelength of 560 nm excitation/590 nm emission.
(§2) The cytotoxicity results are expressed as the average IC50 ± standard error of the mean (SEM). Values of IC50 were obtained by using the online tool Quest Graph IC50 Calculator (AAT Bioquest Inc., Sunnyvale, CA, USA). One-way analysis of variance (ANOVA) was used followed by Duncan’s post hoc test (p < 0.05) to show the differences between the groups. For ANOVA, the Statistica software (Tibco Software Inc., Palo Alto, CA, USA) was used in version 12.

[3] = test system: HDF (human dermal fibroblasts); experiment: Acute cytotoxicity, resazurin assay; type: cell-based; details: 72 h
Source text: as §1, §2

[4] = test system: HEK 293 (human epithelial kidney cells); experiment: Acute cytotoxicity, resazurin assay; type: cell-based
Source text: as §1, §2

[5] = test system: HRTEC (primary human renal tubular epithelial cells); experiment: Acute cytotoxicity, resazurin assay; type: cell-based; details: 72 h
Source text: as §1, §2

[6] = test system: HaCat (human keratinocytes); experiment: Acute cytotoxicity, resazurin assay; type: cell-based; details: 72 h
Source text: as §1, §2

Row | Compound | maximal achieved inhibition (MICBR80 not reached), biofilm reduction ([1]; preformed biofilm, within tested concentrations) | MICBR80 [1] | IC50 (µg/mL) ([2]; HCAEC, cytotoxicity, resazurin, average of 3 repetitions with SEM) | IC50 (µg/mL) ([3]; HDF, cytotoxicity, resazurin, average of 3 repetitions with SEM) | IC50 (µg/mL) ([4]; HEK 293, cytotoxicity, 72 h, resazurin, average of 3 repetitions with SEM) | IC50 (µg/mL) ([5]; HRTEC, cytotoxicity, resazurin, average of 3 repetitions with SEM) | IC50 (µg/mL) ([6]; HaCat, cytotoxicity, resazurin, average of 3 repetitions with SEM) | IC50 ([2]; Homo sapiens, Endothelial cell) | IC50 ([3]; Homo sapiens, Fibroblast) | IC50 ([4]; Homo sapiens, HEK293, 72 h) | IC50 ([5]; Homo sapiens, Epithelial cell) | IC50 ([6]; Homo sapiens, HaCaT)
1 | CC(=O)c1c(O)c(C)c(O)c2c1OC1=CC(=O)C(C(C)=O)C(=O)C12C (single isomer, unassigned; (+)) [UA, (+)-usnic acid] | 0% | > 31.3 µg/mL | 0.03 ± 0.01 ^i µg/mL | 4.35 ± 0.41 ^f µg/mL | 2.75 ± 0.22 ^g µg/mL | 3.06 ± 0.17 ^g µg/mL | 0.59 ± 0.14 ^h µg/mL |  |  |  |  | 
2 | CC(=O)N[C@@H](CS)C(=O)O [NAC, N-Acetyl-L-cysteine] |  | 12,500 µg/mL |  |  |  |  |  | 1830 ± 90 µg/mL (≈ 11.2 mM) | 460 ± 20 µg/mL (≈ 2.82 mM) | 1940 ± 250 µg/mL (≈ 11.9 mM) | 1570 ± 70 µg/mL (≈ 9.62 mM) | 4020 ± 470 µg/mL (≈ 24.6 mM)
